Patent US8147891B2, “Use of an acaricidal powder” (SOLVAY (Societe Anonyme), priority 2002, dated 2012)
Where two headings read alike, the source gives them in different places.

How the values were obtained:
Acarus siro = details: after 48 hours; 10 g powder, 50 mites, mean of 3 samples
Source text: (§1) 10 g of sodium bicarbonate powder having a particle size such that 100% of the particles have a diameter of less than 160μ, and at least 95% have a diameter of less than 100μ, were placed at the bottom of a Petri dish. 50 “Acarus siro” wheat mites were then placed on the powder.

Tyrophagus putrescentiae = details: after 24 hours; 10 g powder, 50 mites
Protocol: as §1
The procedure was carried out as for Example 1, except that “Tyrophagus putrescentiae” cheese mites were used.

Rhizopertha dominica = details: 10 g powder, 50 insects
Source text: In this example, a powder comprising 96% of sodium bicarbonate and 4% of amorphous precipitated fumed silica (Aerosil® 200 produced by Degussa) was used. The powder has a particle size such that 100% of the particles have a diameter of less than 160μ and at least 95% have a diameter of less than 100μ.
(§2) 10 g of powder were placed at the bottom of a Petri dish. 50 “lesser grain borer” insects (Rhizopertha dominica) were then placed on the powder, along with sufficient food to ensure survival for 15 days.
In Examples 4 and 5, the procedure was carried out as in Example 3, except that, in Example 4, a powder consisting essentially of sodium bicarbonate was used and, in Example 5, a powder consisting essentially of silica (silica gel) was used.

Sitophilus granarius = tested on: Sitophilus granarius
Source text: as §2
The effect of various silicas and of a mixture of diatomaceous earth supplemented with 10% of silica gel was also compared.

`O=C([O-])O.[Na+]` [Sodium bicarbonate, sodium bicarbonate] was tested. Which “death of the acarids” value (Acarus siro) did it give?
The value was 95%.

What about the “death of the acarids” value (Tyrophagus putrescentiae) of the same molecule?
Its value is 100%.

What about the “% mortality” value (Rhizopertha dominica; 48 h) of the same molecule?
The value was 2%.

What about the “% mortality” value (Rhizopertha dominica; 72 h) of the same molecule?
The value was 8%.

And the “% mortality” value (Rhizopertha dominica; 4 days)?
The value was 15%.

What about the “% mortality” value (Rhizopertha dominica; 7 days) of the same molecule?
The value was 21%.

What about the “% mortality” value (Rhizopertha dominica; 10 days) of the same molecule?
Its value is 43%.

What about the “% mortality” value (Rhizopertha dominica; 15 days) of the same molecule?
The value was 91%.

And the “% mortality” value (Sitophilus granarius; 24 h)?
Its value is 0%.

What about the “% mortality” value (Sitophilus granarius; 48 h) of the same molecule?
Its value is 0%.

What about the “% mortality” value (Sitophilus granarius; 72 h) of the same molecule?
Its value is 1%.

What about the “% mortality” value (Sitophilus granarius; 4 days) of the same molecule?
The value was 5%.

What about the “% mortality” value (Sitophilus granarius; 7 days) of the same molecule?
The value was 9%.

And the “% mortality” value (Sitophilus granarius; 10 days)?
The value was 55%.

What about the “% mortality” value (Sitophilus granarius; 15 days) of the same molecule?
Its value is 100%.
